Assay results reported in ChEMBL document CHEMBL5321222, “N(14)-substituted evodiamine derivatives as dual topoisomerase 1/tubulin-Inhibiting anti-gastrointestinal tumor agents” (Eur J Med Chem, 2023).
Active and inactive are the calls of the source. The rule behind the calls is not given here.

Columns and labels:
[1] = system: RKO; assay: Induction of cell cycle arrest in human RKO cells assessed as accumulation of cells at G2/M phase at 0.05 to 0.2 uM incubated for 24 hrs by propidium iodide staining based flow cytometry analysis; format: functional; settings: dose 0.05-0.2 µM
[2] = system: MGC-803; assay: Induction of cell cycle arrest in human MGC-803 cells assessed as accumulation of cells at G2/M phase at 0.05 to 0.2 uM incubated for 24 hrs by propidium iodide staining based flow cytometry analysis; format: functional; settings: dose 0.05-0.2 µM
[3] = system: MGC-803; assay: Inhibition of cell […] in human MGC-803 cells at 5 nM incubated for 24 hrs by scratch wound healing assay; format: functional, cell-based
[4] = system: LoVo; assay: Antiproliferative activity against human LoVo cells assessed as reduction in cell viability incubated for 72 hrs by MTT assay; format: functional, cell-based
[5] = system: HGC-27; assay: Antiproliferative activity against human HGC-27 cells assessed as reduction in cell viability incubated for 72 hrs by MTT assay; format: functional, cell-based; settings: HGC-27, 72 h
[6] = system: SGC-7901; assay: Antiproliferative activity against human SGC-7901 cells assessed as reduction in cell viability incubated for 72 hrs by MTT assay; format: functional, cell-based; settings: SGC-7901, 72 h
[7] = system: GES1; assay: Antiproliferative activity against human GES1 cells assessed as reduction in cell viability incubated for 72 hrs by MTT assay; format: functional, cell-based; settings: GES1, 72 h
[8] = system: RKO; assay: Antiproliferative activity against human RKO cells assessed as reduction in cell viability incubated for 24 hrs by BrdU staining based fluorescence microscopic analysis; format: functional; settings: dose 10-90 nM
[9] = system: RKO; assay: Inhibition of colony formation in human RKO cells incubated for 7 days by crystal violet staining based assay; format: functional, cell-based; settings: dose 10-90 nM, time 7.0 day
[10] = system: MGC-803; assay: Induction of apoptosis in human MGC-803 cells assessed as late apoptotic cells at 0.2 uM incubated for 24 hrs by propidium iodide and Annexin V/FITC staining based flow cytometry assay (reference value: 4.10%); format: functional
[11] = system: MGC-803; assay: Inhibition of cell migration in human MGC-803 cells assessed as reduction in tumor wound healing incubated for 24 hrs by microscopic analysis; format: functional, cell-based; settings: dose 10-90 nM
[12] = system: MGC-803; assay: Induction of cell cycle arrest in human MGC-803 cells assessed as accumulation of cells at G2/M phase at 0.05 uM incubated for 24 hrs by propidium iodide staining based flow cytometry analysis; format: functional
[13] = system: MGC-803; assay: Induction of apoptosis in human MGC-803 cells assessed as early apoptotic cells at 0.2 uM incubated for 24 hrs by propidium iodide and Annexin V/FITC staining based flow cytometry assay (reference value: 1.85%); format: functional
[14] = system: MGC-803; assay: Induction of apoptosis in human MGC-803 cells assessed as late apoptotic cells at 0.05 uM incubated for 24 hrs by propidium iodide and Annexin V/FITC staining based flow cytometry assay (reference value: 4.10%); format: functional
[15] = system: MGC-803; assay: Induction of apoptosis in human MGC-803 cells assessed as early apoptotic cells at 0.05 uM incubated for 24 hrs by propidium iodide and Annexin V/FITC staining based flow cytometry assay (reference value: 1.85%); format: functional
[16] = system: RKO; assay: Induction of apoptosis in human RKO cells assessed as early apoptotic cells at 0.2 uM incubated for 24 hrs by propidium iodide and Annexin V/FITC staining based flow cytometry assay (reference value: 0.16%); format: functional
[17] = system: RKO; assay: Induction of apoptosis in human RKO cells assessed as late apoptotic cells at 0.2 uM incubated for 24 hrs by propidium iodide and Annexin V/FITC staining based flow cytometry assay (reference value: 0.50%); format: functional
[18] = system: RKO; assay: Induction of apoptosis in human RKO cells assessed as early apoptotic cells at 0.05 uM incubated for 24 hrs by propidium iodide and Annexin V/FITC staining based flow cytometry assay (reference value: 0.16%); format: functional
[19] = system: MGC-803; assay: Induction of morphological changes in human MGC-803 cells assessed as cell shrinkage at 0.05 to 0.2 uM incubated for 24 hrs by Giemsa staining based micrscopic analysis; format: functional; settings: dose 0.05-0.2 µM
[20] = system: MGC-803; assay: Induction of morphological changes in human MGC-803 cells assessed as cell deformation at 0.05 to 0.2 uM incubated for 24 hrs by Giemsa staining based micrscopic analysis; format: functional; settings: dose 0.05-0.2 µM
[21] = system: MGC-803; assay: Induction of morphological changes in human MGC-803 cells assessed as formation of apoptotic bodies at 0.05 to 0.2 uM incubated for 24 hrs by Giemsa staining based micrscopic analysis; format: functional, cell-based; settings: dose 0.05-0.2 µM
[22] = system: RKO; assay: Induction of morphological changes in human RKO cells assessed as cell deformation at 0.05 to 0.2 uM incubated for 24 hrs by Giemsa staining based micrscopic analysis; format: functional; settings: dose 0.05-0.2 µM
[23] = system: RKO; assay: Induction of morphological changes in human RKO cells assessed as formation of apoptotic bodies at 0.05 to 0.2 uM incubated for 24 hrs by Giemsa staining based micrscopic analysis; format: functional, cell-based; settings: dose 0.05-0.2 µM
[24] = biological target: T1, DNA topoisomerase 1 (Homo sapiens) (UniProt P11387); assay: Inhibition of topoisomerase 1 (unknown origin) at 200 uM using PBR322 DNA as substrate incubated for 30 mins by agarose gel electrophoresis
T1 sequence (whole entry): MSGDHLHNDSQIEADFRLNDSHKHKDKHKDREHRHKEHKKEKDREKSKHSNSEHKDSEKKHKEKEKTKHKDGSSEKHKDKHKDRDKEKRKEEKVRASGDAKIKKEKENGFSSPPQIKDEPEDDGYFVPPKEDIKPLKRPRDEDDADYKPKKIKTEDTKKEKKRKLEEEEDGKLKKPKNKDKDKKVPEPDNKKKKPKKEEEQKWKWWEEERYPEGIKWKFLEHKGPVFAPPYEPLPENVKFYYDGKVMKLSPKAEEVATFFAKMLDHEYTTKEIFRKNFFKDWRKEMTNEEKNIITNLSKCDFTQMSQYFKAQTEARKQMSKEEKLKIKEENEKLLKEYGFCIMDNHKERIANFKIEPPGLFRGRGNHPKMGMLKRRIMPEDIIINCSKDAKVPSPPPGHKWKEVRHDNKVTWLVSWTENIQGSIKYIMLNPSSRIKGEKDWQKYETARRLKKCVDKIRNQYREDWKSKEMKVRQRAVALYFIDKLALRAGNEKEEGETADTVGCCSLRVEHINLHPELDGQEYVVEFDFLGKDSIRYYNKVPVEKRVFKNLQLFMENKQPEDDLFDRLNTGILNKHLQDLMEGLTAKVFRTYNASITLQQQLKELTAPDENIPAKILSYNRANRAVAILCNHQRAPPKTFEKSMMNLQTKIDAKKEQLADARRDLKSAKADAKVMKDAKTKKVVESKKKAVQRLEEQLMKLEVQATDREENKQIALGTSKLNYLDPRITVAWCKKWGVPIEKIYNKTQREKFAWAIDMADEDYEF

[25] = biological target: T2, Tubulin (Homo sapiens) (UniProt P68371+Q9H4B7+P0DPH7+P68366+Q13509+Q71U36+P04350+Q3ZCM7+P07437+P68363+Q9BQE3+Q6PEY2+Q13885+Q9BVA1+Q9BUF5); assay: Induction of microtubule disruption in human MGC-803 cells assessed as atrophied nucleus at 50 to 200 nM incubated for 24 hrs by laser confocal microscopic analysis; format: cell-based; settings: dose 50-200 nM
[26] = biological target: T2, Tubulin (Homo sapiens); assay: (§1) Inhibition of tubulin polymerization (unknown origin) measured every minute; format: protein-complex assay
[27] = biological target: Tubulin; assay: as §1; format: protein-complex assay, Homo sapiens

- IC50 [4]: 230 nM
- IC50 [6]: 90 nM
- inhibition [24]: Active
- Activity [25]: Active
- inhibition [26]: Dose-Dependent Effect
- IC50 [27]: 5690 nM
Structure (SMILES): CCCN1c2ccccc2C(=O)N2CCc3c([nH]c4ccccc34)C21 (configuration not stated)
- Activity [1]: Active
- Activity [2]: Active
- inhibition [3]: Active
- IC50 [5]: 810 nM
- IC50 [7]: 130 nM
- Activity [8]: Dose-Dependent Effect
- inhibition [9]: Dose-Dependent Effect
- Activity [10]: 25.1%
- inhibition [11]: Dose-Dependent Effect
- Activity [12]: 40.55%
- Activity [13]: 12.28%
- Activity [14]: 6.84%
- Activity [15]: 3.03%
- Activity [16]: 14.35%
- Activity [17]: 37.67%
- Activity [18]: 9.67%
- Activity [19]: Active
- Activity [20]: Active
- Activity [21]: Active
- Activity [22]: Active
- Activity [23]: Active
